Results published in patent US20250066735A1, “PREPARATION METHOD OF MESENCHYMAL STEM CELL (MSC) AND APPLICATION THEREOF IN KNEE PRODUCT” (GUANGDONG CELL BIOTECHNOLOGY CO. LTD, priority 2024, published 2025).

Test system: human bone marrow-derived MSCs
Assay: Trypan blue survival rate of MSCs pre-cultivated with additive medium, after H2O2 challenge
Format: cell-based
Settings: for Cell survival rate-improving effect (in words): compared among additive compositions, H2O2 challenge; for Cell survival rate: third-generation MSCs cultivated with medium additive, then low-sugar DMEM with 100 mM H2O2 for 1 h, Trypan blue
Experimental: (1) Isolation of bone marrow-derived MSCs from a bone marrow: 20 mL to 40 mL of a human bone marrow was extracted and added to a sterile glass bottle with 3,000 U heparin, and the human bone marrow and the heparin were fully mixed for anticoagulation. Normal saline was added at the same amount as the human bone marrow to the sterile glass bottle, and mixing was conducted thoroughly to obtain diluted human bone marrow. The diluted human bone marrow was added slowly to a Ficoll liquid level with 1 part by volume of a lymphocyte separation solution (Ficoll separation solution) per 2 parts by volume of the diluted human bone marrow to obtain a mixed system. The mixed system was centrifuged at 2,000 r/min and 20° C. in a horizontal centrifuge for 25 min, and bone marrow-derived MSCs were collected from an interface, washed with normal saline 2 to 3 times, suspended with an appropriate amount of a culture medium, and counted.
(2) Primary cultivation of the bone marrow-derived MSCs: The bone marrow-derived MSCs obtained in the step (1) were inoculated at a density of 0.3×10^6/mL in a basal medium, and the primary cultivation was conducted. The basal medium is Dulbecco's Modified Eagle Medium (DMEM, GIBCO company, America). During the primary cultivation, the medium was changed every 2 d to remove non-adherent cells and continuously purify the human bone marrow-derived MSCs. When a cell density reached 80%, the sub-cultivation was conducted. For an experimental group, an additive composition of NOG and quercetin was added to the basal medium to prepare an experimental medium.
The sub-cultivation was conducted until third-generation human bone marrow-derived MSCs were obtained. The third-generation human bone marrow-derived MSCs were further cultivated with the experimental medium for cell transplantation.
(3) A survival rate of the human bone marrow-derived MSCs was detected with Trypan blue. The human bone marrow-derived MSCs obtained in the step (2) (cells cultivated without NOG and quercetin were adopted as a control group) were transferred to a low-sugar DMEM including 100 mM hydrogen peroxide (H2O2), cultivated for 1 h, stained with Trypan blue, and observed under a microscope to count a cell survival rate.

Structure (SMILES)	Cell survival rate-improving effect (in words)	Cell survival rate
O=c1c(O)c(-c2ccc(O)c(O)c2)oc2cc(O)cc(O)c12 [compound 1, quercetin]	inferior cell survival rate-improving effect	50.2 ± 0.7%
O=C(O)CNC(=O)C(=O)O [compound 2, N-oxalylglycine]	inferior cell survival rate-improving effect	52.3 ± 0.8%
